Experiments:
Assay type in all cases: cell-based, human
PTEN [1] = experiment: Expression of key genes with and without p53 inhibitor (Table 3): PTEN; conditions: positive = manifold increase, negative = decrease vs untreated cells
Procedure: (§1) Quantitative real-time PCR experiments were performed to estimate the expression of a selection of targeted genes. HUVEC cells (Lonza Walkersville, Frederick, Md.) were cultured on 0.1% gelatin-coated petri dishes by following standard protocols recommended by the vendor in a humidified incubator by maintaining 5% CO2 at 37° C. Human epithelial ovarian cancer cells (A2780) and cisplatin-resistant cells (A2780/C30) were cultured in RPMI 1640 with or without cisplatin (7 μM) and pyrodach-4 (180 μM) for 0, 3, 12 and 24 hours. […] HUVECs were treated with or without cisplatin (7 μM) or pyrodach-4 (90 or 180 μM) for various durations ranging from 1 hr. to 6 hrs.
(§2) Both treated and untreated cancer cells were maintained in RPMI 1640 medium with 10% fetal bovine serum, 2 μmol L-glutamine, 100 units/mL penicillin-streptomycin and 0.25 units/mL insulin solution, at 37° C. with 5% CO2. RNA was isolated from both the treated and untreated cells. […] The quantity and purity of RNA were determined by UV spectroscopy (NanoDrop 2000 Thermo Scientific, Wilmington, Del.). A minimum absorbance ratio index (ratio of the absorbance measured at 260 nm over that at 280 nm) of 1.9 was used as an acceptable purity. […] The target gene was labeled with a blue dye (FAM, absorbance: 494 nm, emission: 518 nm) while the reference gene was tagged with a green dye (VIC, absorbance: 538 nm, emission: 554 nm). […]

A2780 cells = experiment: Cell death detection assay with ELISA, A2780 cells; conditions: 24 hr
Procedure: In these experiments, ovarian cancer cells were treated with pyrodach-4 in the presence and absence of inhibitors PFT-α (an inhibitor p53) and LY29400 (an inhibitor of PI3K).
Cells were treated with compounds for 24 hr. The different treatment groups from left to right are: control, 7 μM cisplatin, Con+PFT-α, 180 μM D4, 180 μM D4+PFT-α, 180 μM D4+LY294002. Statistical analysis was conducted using the Tukey test. N=3 and P<0.05. In the figure, “*” indicates values significant from untreated control.
A2780 and A2780/C30 cells were grown in monolayers, trypsinized and suspended in supplemented RPMI 1640 media as described in Example 5. All the treatments on the Fc/A2780 and Fc/A2780/C30 cell samples were carried out in triplicate. The ELISA was performed according to the manufacturer's instructions. Briefly, 50,000 cells were plated for each treatment and the cells were allowed to adhere for 4-6 hours. Cells were then either incubated with media alone (untreated sample) or with pyrodach-4 or cisplatin in the concentrations indicated above. […] The absorbances were measured at 405 and 490 nm for each treatment type using SPECTRA Max M2 multichannel fluorescence plate reader (Molecular Devices, Sunnyvale, Calif.). The absorbances of the treated samples were normalized to the substrate solution. […]

PTEN [2] = experiment: Quantitative real-time PCR, PTEN expression in A2780 cells; conditions: for Normalized expression of PTEN: control = 1.0
Procedure: (§3) Evaluations of selected gene expressions in Human Umbilical Vein Endothelial Cells (HUVEC) and Human Ovarian Cancer Cells by quantitative reverse transcriptase polymerase chain reaction (PCR)
as §1
(§4) Both treated and untreated cancer cells were maintained in RPMI 1640 medium with 10% fetal bovine serum, 2 μmol L-glutamine, 100 units/mL penicillin-streptomycin and 0.25 units/mL insulin solution, at 37° C. with 5% CO2. RNA was isolated from both the treated and untreated cells. […] The quantity and purity of RNA were determined by UV spectroscopy (NanoDrop 2000 Thermo Scientific, Wilmington, Del.). A minimum absorbance ratio index (ratio of the absorbance measured at 260 nm over that at 280 nm) of 1.9 was used as an acceptable purity. […] The target gene was labeled with a blue dye (FAM, absorbance: 494 nm, emission: 518 nm) while the reference gene was tagged with a green dye (VIC, absorbance: 538 nm, emission: 554 nm). The cDNA concentrations were selected such that the threshold cycle (Ct) values for the target genes were between 17 and 32, most sensitive for the fluorescence detection by ABI StepOnePlus™ instrument used for the measurements.
(§5) The threshold cycle number (Ct), the point at which the fluorescence of the qPCR reaction just exceeds the threshold fluorescence of the detection system, was determined. […]

VEGFR2 gene = experiment: Quantitative real-time PCR, VEGFR2 gene expression in A2780/C30 cells
Procedure: as §3, §1, §4, §5

PTEN [3] = experiment: Quantitative real-time PCR, PTEN expression in A2780/C30 cells
Procedure: as §3
(§6) Quantitative real-time PCR experiments were performed to estimate the expression of a selection of targeted genes. HUVEC cells (Lonza Walkersville, Frederick, Md.) were cultured on 0.1% gelatin-coated petri dishes by following standard protocols recommended by the vendor in a humidified incubator by maintaining 5% CO2 at 37° C. […]
as §2, with “CO2.” for “CO2. RNA was isolated from both the treated and untreated cells.”
as §5

PUMA = experiment: Quantitative real-time PCR, PUMA expression in HUVEC; conditions: HUVEC treated with pyrodach-4
Procedure: as §3, §6
as §2, with “CO2.” for “CO2. RNA was isolated from both the treated and untreated cells.”
as §5

A2780/C30 cells = experiment: Cell death detection assay with ELISA, A2780/C30 cells
Procedure: The different treatment groups from left to right are: control, 7 μM cisplatin, Con+PFT-α, 180 μM D4, 180 μM D4+PFT-α, 180 μM D4+LY294002. Apoptosis was quantified using the Cell Death Detection ELISA from Roche.
A2780 and A2780/C30 cells were grown in monolayers, trypsinized and suspended in supplemented RPMI 1640 media as described in Example 5. All the treatments on the Fc/A2780 and Fc/A2780/C30 cell samples were carried out in triplicate. The ELISA was performed according to the manufacturer's instructions. Briefly, 50,000 cells were plated for each treatment and the cells were allowed to adhere for 4-6 hours. Cells were then either incubated with media alone (untreated sample) or with pyrodach-4 or cisplatin in the concentrations indicated above. DNA of the treated and untreated cells was assayed for nucleosomal DNA using the ELISA kit (purchased from Roche Diagnostics, Mannheim, Germany). The cells were lysed for 30 minutes using the lysis buffer. After centrifuging, 10% (v/v) supernanant was incubated with anti-histone-biotin and anti-DNA-peroxidase. After two hour incubation, the pellets were washed three times and incubated with the substrate solution. The absorbances were measured at 405 and 490 nm for each treatment type using SPECTRA Max M2 multichannel fluorescence plate reader (Molecular Devices, Sunnyvale, Calif.). The absorbances of the treated samples were normalized to the substrate solution.

BID = experiment: Expression of key genes with and without p53 inhibitor (Table 3): BID; conditions: positive = manifold increase, negative = decrease vs untreated cells
Procedure: as §1, §2

Fas = experiment: Expression of key genes with and without p53 inhibitor (Table 3): Fas; conditions: positive = manifold increase, negative = decrease vs untreated cells
Procedure: as §1, §2

[4] = 180 μM D4 with PFT-α 15 μM or LY294002 30 μM

Substance: trans-(±)-1,2-cyclohexanediamine-trans-dihydroxo(pyrophosphato) platinum(IV) [Pyrodach-4]
- Expression of PTEN (PTEN [1]; Pyrodach-4 + PFT-α): −1.3
- Expression of PTEN (PTEN [1]; Pyrodach-4 treatment only): 5.5
- Overall apoptotic cell death in the presence of inhibitors, compared to cisplatin (A2780 cells; 180 μM D4 with PFT-α 15 μM or LY294002 30 μM vs 7 μM cisplatin): remained extremely high compared to cisplatin
- Effect of p53 and PI3K inhibitors on apoptotic cell death (ELISA absorbance) (A2780 cells; [4]): some reduction in cell death
- Expression of the PTEN gene compared to control (PTEN [2]): 5.5 fold
- Normalized expression of PTEN (PTEN [2]; pyrodach-4 alone): 5.5
- Normalized expression of PTEN (PTEN [2]; pyrodach-4 in the presence of p53 inhibitor PTF-α): 0.8
- Normalized expression of VEGFR2 gene (VEGFR2 gene; A2780/C30 (cisplatin-resistant), positive = manifold increase, negative = relative decrease vs untreated cells, cisplatin 7 μM, pyrodach-4 180 μM): −2.0
- Suppression of VEGFR-2 gene expression (VEGFR2 gene; cisplatin-resistant human ovarian cancer cells): ≤ 50%
- Expression of the PTEN gene compared to control (PTEN [3]): 2.3 fold
- Normalized expression of PTEN (PTEN [3]; pyrodach-4 alone, control = 1.0): 2.3
- Over-expression of PUMA (PUMA): 10-15 fold
- Apoptotic cell death (ELISA absorbance) (A2780/C30 cells; 7 μM cisplatin or 180 μM D4): unambiguously showed cell death
- Effect of p53 and PI3K inhibitors on apoptotic cell death (ELISA absorbance) (A2780/C30 cells; [4]): no effects
- Expression of BID (BID; Pyrodach-4 + PFT-α): 1.0
- Expression of BID (BID; Pyrodach-4 treatment only): 1.8
- Expression of Fas (Fas; Pyrodach-4 + PFT-α): 5.5
- Expression of Fas (Fas; Pyrodach-4 treatment only): 11.0

From patent US20130236568A1, “PHOSPHAPLATINS HAVING ANTI-ANGIOGENIC, ANTI-METASTATIC, AND PRO-APOPTOTIC PROPERTIES AND USES THEREOF” (Ohio University, priority 2011, published 2013)
